What is called Ki is a measure of affinity in units of concentration, obtained from inhibition or displacement. The IC50 is the point on the concentration scale where inhibition reaches its midpoint.

The source made the active and inactive calls.

Holding throughout (assay type): functional
Experiment [1] concerns the target Dual specificity mitogen-activated protein kinase kinase 1 (Homo sapiens, UniProt Q02750). The experiment in a line: Navigating the Kinome. Panel member name: MAP2K1.
Experiment [2] deals with Tyrosine-protein kinase JAK2 (Homo sapiens, UniProt O60674).
For experiment [3], the target named is cAMP-dependent protein kinase catalytic subunit PRKX (Homo sapiens, UniProt P51817).
Experiment [4] addresses Macrophage-stimulating protein receptor (Homo sapiens, UniProt Q04912). The experiment in a line: Navigating the Kinome. Panel member name: MST1R.
The target in experiment [5] is Insulin-like growth factor 1 receptor (Homo sapiens, UniProt P08069). The experiment in a line: Navigating the Kinome. Panel member name: IGF1R.
Experiment [6] concerns the target Tyrosine-protein kinase Fyn (Homo sapiens, UniProt P06241).
Experiment [7] deals with Cyclin-dependent kinase 7 (Homo sapiens, UniProt P50613).
In experiment [8] the target is G protein-coupled receptor kinase 5 (Homo sapiens, UniProt P34947). Put plainly: Navigating the Kinome. Panel member name: GPRK5.
For experiment [9], the target named is Death-associated protein kinase 3 (Homo sapiens, UniProt O43293).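 Further: measured as one member of a kinome-wide profiling panel.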
Experiment [10] deals with Vascular endothelial growth factor receptor 2 (Homo sapiens, UniProt P35968).
For experiment [11], the target named is Tyrosine-protein kinase ABL1 (Homo sapiens, UniProt P00519).
In experiment [12] the target is Fibroblast growth factor receptor 1 (Homo sapiens, UniProt P11362).
In experiment [13] the target is Mitogen-activated protein kinase 8 (Homo sapiens, UniProt P45983).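 Further: value comes from one member of a kinome-wide kinase profiling panel.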
For experiment [14], the target named is Calcium/calmodulin-dependent protein kinase type II subunit alpha (Homo sapiens, UniProt Q9UQM7). The experiment in a line: Navigating the Kinome. Panel member name: CAMK2A.
Experiment [15] concerns the target Platelet-derived growth factor receptor alpha (Homo sapiens, UniProt P16234). Put plainly: Navigating the Kinome. Panel member name: PDGFRA.
The target of experiment [16] is Leukocyte tyrosine kinase receptor (Homo sapiens, UniProt P29376). The experiment in a line: Navigating the Kinome. Panel member name: LTK.
Experiment [17] concerns the target Rho-associated protein kinase 1 (Homo sapiens, UniProt Q13464).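 Further: measured within a broad kinome-wide panel profiling many kinases.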
The next experiment has as its target LIM domain kinase 1 (Homo sapiens, UniProt P53667). The experiment in a line: Navigating the Kinome. Panel member name: LIMK1.
The target in experiment [18] is Cyclin-dependent kinase 9 (Homo sapiens, UniProt P50750).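 Further: value from the CDK9 entry of a kinome-spanning kinase panel.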
The target in experiment [19] is Serine/threonine-protein kinase PAK 4 (Homo sapiens, UniProt O96013).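 Further: value obtained within a kinome profiling panel in which PAK4 was one of the panel members.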
The target of experiment [20] is High affinity nerve growth factor receptor (Homo sapiens, UniProt P04629).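 Further: NTRK1 tested as one member of a kinome-wide profiling panel.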
Experiment [21] has as its target Receptor-type tyrosine-protein kinase FLT3 (Homo sapiens, UniProt P36888).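 Further: FLT3 was tested as one member of a kinome-wide kinase panel.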
In another experiment the target is Activin receptor type-1 (Homo sapiens, UniProt Q04771). Put plainly: Navigating the Kinome. Panel member name: ACVR1.
Chain of Activin receptor type-1 (Q04771 whole entry): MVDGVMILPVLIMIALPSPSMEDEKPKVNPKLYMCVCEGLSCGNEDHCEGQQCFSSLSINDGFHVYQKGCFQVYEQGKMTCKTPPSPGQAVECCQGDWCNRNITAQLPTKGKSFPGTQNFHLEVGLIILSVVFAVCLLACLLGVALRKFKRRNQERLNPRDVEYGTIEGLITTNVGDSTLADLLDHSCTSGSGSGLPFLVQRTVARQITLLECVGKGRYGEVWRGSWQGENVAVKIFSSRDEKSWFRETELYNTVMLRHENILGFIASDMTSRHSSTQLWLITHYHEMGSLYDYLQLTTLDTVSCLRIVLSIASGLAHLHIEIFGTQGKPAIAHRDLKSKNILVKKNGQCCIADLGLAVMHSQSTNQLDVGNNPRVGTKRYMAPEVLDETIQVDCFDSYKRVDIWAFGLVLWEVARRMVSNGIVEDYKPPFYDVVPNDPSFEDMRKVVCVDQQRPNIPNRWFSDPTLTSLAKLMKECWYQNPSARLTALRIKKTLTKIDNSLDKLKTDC
The target of experiment [22] is Macrophage colony-stimulating factor 1 receptor (Homo sapiens, UniProt P07333).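 Further: value comes from the Navigating the Kinome screening panel, CSF1R member.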
Experiment [23] concerns the target Dual specificity tyrosine-phosphorylation-regulated kinase 1A (Homo sapiens, UniProt Q13627).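 Further: measured against DYRK1A as one member of a broad kinome profiling panel.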
A further experiment concerns the target Aurora kinase A (Homo sapiens, UniProt O14965).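 Further: value from the Navigating the Kinome kinase panel profiling, panel entry STK6.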
For experiment [24], the target named is Serine/threonine-protein kinase D3 (Homo sapiens, UniProt O94806).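 Further: determined within a kinase panel screen, with PRKCN as the panel member.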
Chain of Serine/threonine-protein kinase D3 (O94806 whole entry): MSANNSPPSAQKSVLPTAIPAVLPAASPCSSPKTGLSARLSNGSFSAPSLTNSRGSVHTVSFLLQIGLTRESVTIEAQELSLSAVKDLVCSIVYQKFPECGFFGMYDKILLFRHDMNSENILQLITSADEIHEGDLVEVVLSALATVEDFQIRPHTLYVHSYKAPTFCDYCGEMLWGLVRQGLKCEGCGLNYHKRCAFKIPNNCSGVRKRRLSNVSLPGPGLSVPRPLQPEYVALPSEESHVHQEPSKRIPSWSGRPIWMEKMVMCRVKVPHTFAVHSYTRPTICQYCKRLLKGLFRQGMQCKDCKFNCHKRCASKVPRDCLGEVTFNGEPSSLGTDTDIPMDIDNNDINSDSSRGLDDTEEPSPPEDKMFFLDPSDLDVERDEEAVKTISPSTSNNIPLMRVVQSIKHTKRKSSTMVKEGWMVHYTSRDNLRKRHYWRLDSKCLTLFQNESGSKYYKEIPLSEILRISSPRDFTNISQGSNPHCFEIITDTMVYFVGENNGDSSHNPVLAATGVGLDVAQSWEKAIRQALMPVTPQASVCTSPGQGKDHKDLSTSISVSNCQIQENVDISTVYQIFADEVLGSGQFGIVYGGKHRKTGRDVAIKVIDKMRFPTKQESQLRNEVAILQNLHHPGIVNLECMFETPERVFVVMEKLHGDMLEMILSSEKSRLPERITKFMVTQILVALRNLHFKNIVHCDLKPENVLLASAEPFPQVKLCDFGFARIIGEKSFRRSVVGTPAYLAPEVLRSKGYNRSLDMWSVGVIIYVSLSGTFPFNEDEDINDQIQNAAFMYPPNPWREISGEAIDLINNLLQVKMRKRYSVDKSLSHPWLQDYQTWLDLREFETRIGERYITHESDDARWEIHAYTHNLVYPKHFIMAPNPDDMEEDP
In experiment [25] the target is Serine/threonine-protein kinase pim-1 (Homo sapiens, UniProt P11309).
Chain of Serine/threonine-protein kinase pim-1 (P11309 whole entry): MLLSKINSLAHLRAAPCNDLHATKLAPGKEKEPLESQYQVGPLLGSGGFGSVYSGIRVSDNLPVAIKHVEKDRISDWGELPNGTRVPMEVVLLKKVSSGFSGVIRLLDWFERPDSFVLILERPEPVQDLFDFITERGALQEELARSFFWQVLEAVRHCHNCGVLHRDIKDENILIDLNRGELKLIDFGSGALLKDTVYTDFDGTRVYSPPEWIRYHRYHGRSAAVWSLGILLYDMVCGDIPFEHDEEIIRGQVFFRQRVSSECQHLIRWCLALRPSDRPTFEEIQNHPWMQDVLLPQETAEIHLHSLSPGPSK
In experiment [26] the target is Dual specificity tyrosine-phosphorylation-regulated kinase 1B (Homo sapiens, UniProt Q9Y463). The experiment in a line: Navigating the Kinome. Panel member name: DYRK1B.
In experiment [27] the target is cAMP-dependent protein kinase catalytic subunit alpha (Homo sapiens, UniProt P17612).
For experiment [28], the target named is Cyclin-dependent kinase 5 (Homo sapiens, UniProt Q00535).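 Further: CDK5 measured as one member of a kinase profiling panel.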
Chain of Cyclin-dependent kinase 5 (Q00535 whole entry): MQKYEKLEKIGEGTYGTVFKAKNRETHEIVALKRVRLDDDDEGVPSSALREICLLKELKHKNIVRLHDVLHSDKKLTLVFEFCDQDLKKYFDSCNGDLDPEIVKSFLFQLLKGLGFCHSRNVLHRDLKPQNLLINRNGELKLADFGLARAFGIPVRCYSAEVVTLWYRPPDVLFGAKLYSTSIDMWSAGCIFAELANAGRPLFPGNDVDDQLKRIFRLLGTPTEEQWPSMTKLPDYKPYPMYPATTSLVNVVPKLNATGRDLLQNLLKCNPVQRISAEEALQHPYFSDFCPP
For experiment [29], the target named is Serine/threonine-protein kinase Chk1 (Homo sapiens, UniProt O14757).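 Further: measured as one member of a kinome-wide kinase profiling panel.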
Experiment [30] concerns the target Dual specificity mitogen-activated protein kinase kinase 2 (Homo sapiens, UniProt P36507). The experiment in a line: Navigating the Kinome. Panel member name: MAP2K2.
Experiment [31] concerns the target Dual specificity protein kinase CLK2 (Homo sapiens, UniProt P49760).
The target in experiment [32] is Hepatocyte growth factor receptor (Homo sapiens, UniProt P08581).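 Further: kinase panel profiling across the kinome, with MET as the panel member.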
For experiment [33], the target named is 5'-AMP-activated protein kinase catalytic subunit alpha-1 (Homo sapiens, UniProt Q13131).
For experiment [34], the target named is Cyclin-dependent kinase 8 (Homo sapiens, UniProt P49336). The experiment in a line: Navigating the Kinome. Panel member name: CDK8.
The target in experiment [35] is Tyrosine-protein kinase receptor TYRO3 (Homo sapiens, UniProt Q06418).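 Further: TYRO3 value obtained as one member of a kinome-wide profiling panel.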
The target of experiment [36] is Tyrosine-protein kinase JAK3 (Homo sapiens, UniProt P52333).
Experiment [37] addresses Vascular endothelial growth factor receptor 1 (Homo sapiens, UniProt P17948).
The next experiment has as its target Activated CDC42 kinase 1 (Homo sapiens, UniProt Q07912). Put plainly: Navigating the Kinome. Panel member name: ACK1.
Experiment [38] has as its target Serine/threonine-protein kinase TBK1 (Homo sapiens, UniProt Q9UHD2). The experiment in a line: Navigating the Kinome. Panel member name: TBK1.
Experiment [39] addresses Tyrosine-protein kinase BTK (Homo sapiens, UniProt Q06187).
Experiment [40] has as its target Proto-oncogene tyrosine-protein kinase receptor Ret (Homo sapiens, UniProt P07949).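 Further: measured within a kinome-wide profiling panel, RET as the panel member.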
Experiment [41] has as its target Serine/threonine-protein kinase TAO1 (Homo sapiens, UniProt Q7L7X3).
Experiment [42] concerns the target Leucine-rich repeat serine/threonine-protein kinase 2 (Homo sapiens, UniProt Q5S007).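 Further: value from a broad kinome-wide panel profiling study in which LRRK2 was one of the kinases tested.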
The target of experiment [43] is Mitogen-activated protein kinase 9 (Homo sapiens, UniProt P45984).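 Further: value from a kinome panel profiling assay, MAPK9 panel entry.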
The target of the next experiment is Aurora kinase B (Homo sapiens, UniProt Q96GD4).
Chain of Aurora kinase B (Q96GD4 whole entry): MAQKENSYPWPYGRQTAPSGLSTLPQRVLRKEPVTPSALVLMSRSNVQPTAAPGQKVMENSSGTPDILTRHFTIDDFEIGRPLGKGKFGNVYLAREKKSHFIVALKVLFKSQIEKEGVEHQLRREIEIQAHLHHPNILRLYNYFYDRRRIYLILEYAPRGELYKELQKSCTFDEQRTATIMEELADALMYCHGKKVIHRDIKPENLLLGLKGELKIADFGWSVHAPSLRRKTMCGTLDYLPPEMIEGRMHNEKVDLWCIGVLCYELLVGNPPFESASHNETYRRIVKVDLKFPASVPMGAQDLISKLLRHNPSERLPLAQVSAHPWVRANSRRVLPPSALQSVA
For experiment [44], the target named is Inhibitor of nuclear factor kappa-B kinase subunit epsilon (Homo sapiens, UniProt Q14164). Put plainly: Navigating the Kinome. Panel member name: IKBKE.
Experiment [45] has as its target Mitogen-activated protein kinase kinase kinase kinase 2 (Homo sapiens, UniProt Q12851).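 Further: measured as one member of a kinome-wide kinase panel, with MAP4K2 as the panel entry.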
The target of experiment [46] is Dual specificity protein kinase CLK4 (Homo sapiens, UniProt Q9HAZ1).
Experiment [47] concerns the target Glycogen synthase kinase-3 alpha (Homo sapiens, UniProt P49840).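 Further: GSK3A result taken from a broad kinome-wide kinase panel.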
The target in experiment [48] is Protein kinase C theta type (Homo sapiens, UniProt Q04759). Put plainly: Navigating the Kinome. Panel member name: PRKCQ.
Experiment [49] has as its target ALK tyrosine kinase receptor (Homo sapiens, UniProt Q9UM73).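 Further: ALK tested as one member of a kinase panel screen.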
Experiment [50] has as its target Mitogen-activated protein kinase 14 (Homo sapiens, UniProt Q16539).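 Further: part of a kinome-wide panel, MAPK14 entry.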
The target of experiment [51] is Glycogen synthase kinase-3 beta (Homo sapiens, UniProt P49841).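 Further: value comes from a broad kinome profiling panel, with GSK3B as the panel member.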
In experiment [52] the target is BDNF/NT-3 growth factors receptor (Homo sapiens, UniProt Q16620).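 Further: NTRK2 measured as one member of a broad kinome-wide kinase profiling panel.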
The target in experiment [53] is MAP kinase-activated protein kinase 2 (Homo sapiens, UniProt P49137).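 Further: measured as one member of a kinome-wide kinase panel.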
Experiment [54] deals with Cyclin-dependent kinase 1 (Homo sapiens, UniProt P06493).
For experiment [55], the target named is Serine/threonine-protein kinase PLK1 (Homo sapiens, UniProt P53350).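 Further: PLK1 measured as one member of a kinome-wide profiling panel.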
The target of experiment [56] is Melanin-concentrating hormone receptor 1 (Homo sapiens, UniProt Q99705). The experiment in a line: Late-stage fluorescence-based counterscreen for antagonists of the G-protein coupled receptor 7 (GPR7): cell-based dose response assay to identify antagonists of the melanin-concentrating hormone receptor 1 (MCHR1) Set 6. (A counterscreen serves to expose hits that act by an unwanted route or on another target.)

Experiment [57] addresses Neuropeptides B/W receptor type 1 (Homo sapiens, UniProt P48145). Put plainly: GPR7 antagonist potency, late-stage follow-up, cell-based, fluorescence, dose response, set 6 (AID 588583).

Chain of Glycogen synthase kinase-3 alpha (P49840 whole entry): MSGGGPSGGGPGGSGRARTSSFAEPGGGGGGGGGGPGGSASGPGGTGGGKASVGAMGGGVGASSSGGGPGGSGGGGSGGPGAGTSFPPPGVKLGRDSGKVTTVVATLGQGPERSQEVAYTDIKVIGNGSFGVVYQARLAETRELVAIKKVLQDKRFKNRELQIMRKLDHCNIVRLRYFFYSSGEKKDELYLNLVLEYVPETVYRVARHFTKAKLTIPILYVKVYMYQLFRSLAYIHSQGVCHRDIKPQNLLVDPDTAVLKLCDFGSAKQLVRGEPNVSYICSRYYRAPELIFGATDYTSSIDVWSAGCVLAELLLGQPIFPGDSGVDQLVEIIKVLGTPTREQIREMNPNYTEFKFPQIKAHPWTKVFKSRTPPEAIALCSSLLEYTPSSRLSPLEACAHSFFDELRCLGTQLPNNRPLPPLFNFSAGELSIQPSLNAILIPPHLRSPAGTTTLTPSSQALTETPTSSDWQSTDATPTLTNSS
Chain of Serine/threonine-protein kinase TAO1 (Q7L7X3 whole entry): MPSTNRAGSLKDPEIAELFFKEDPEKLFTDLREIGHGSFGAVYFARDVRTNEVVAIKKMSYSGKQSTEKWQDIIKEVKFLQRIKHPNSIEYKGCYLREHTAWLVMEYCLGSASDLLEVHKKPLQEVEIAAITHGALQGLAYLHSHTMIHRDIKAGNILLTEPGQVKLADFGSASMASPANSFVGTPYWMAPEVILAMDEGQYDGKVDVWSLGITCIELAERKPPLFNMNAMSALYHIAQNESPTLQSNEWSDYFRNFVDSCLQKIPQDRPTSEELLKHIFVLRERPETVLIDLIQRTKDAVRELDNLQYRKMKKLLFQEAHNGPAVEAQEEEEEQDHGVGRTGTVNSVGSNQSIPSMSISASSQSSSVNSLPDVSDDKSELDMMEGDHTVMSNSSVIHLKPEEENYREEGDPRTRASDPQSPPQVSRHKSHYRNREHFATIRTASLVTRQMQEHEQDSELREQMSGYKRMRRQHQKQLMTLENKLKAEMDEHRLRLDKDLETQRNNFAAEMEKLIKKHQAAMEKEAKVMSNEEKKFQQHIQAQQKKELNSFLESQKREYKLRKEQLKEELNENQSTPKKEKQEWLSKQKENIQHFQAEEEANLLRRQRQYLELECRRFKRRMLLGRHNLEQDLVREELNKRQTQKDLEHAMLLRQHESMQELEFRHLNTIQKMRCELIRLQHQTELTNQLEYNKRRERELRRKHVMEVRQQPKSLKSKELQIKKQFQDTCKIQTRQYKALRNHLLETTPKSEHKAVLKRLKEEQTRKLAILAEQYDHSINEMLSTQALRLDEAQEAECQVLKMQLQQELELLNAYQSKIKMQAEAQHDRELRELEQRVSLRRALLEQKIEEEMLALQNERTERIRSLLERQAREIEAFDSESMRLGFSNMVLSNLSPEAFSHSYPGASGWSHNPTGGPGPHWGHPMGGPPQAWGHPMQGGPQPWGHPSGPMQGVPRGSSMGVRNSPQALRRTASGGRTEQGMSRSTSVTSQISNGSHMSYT
Chain of Serine/threonine-protein kinase TBK1 (Q9UHD2 whole entry): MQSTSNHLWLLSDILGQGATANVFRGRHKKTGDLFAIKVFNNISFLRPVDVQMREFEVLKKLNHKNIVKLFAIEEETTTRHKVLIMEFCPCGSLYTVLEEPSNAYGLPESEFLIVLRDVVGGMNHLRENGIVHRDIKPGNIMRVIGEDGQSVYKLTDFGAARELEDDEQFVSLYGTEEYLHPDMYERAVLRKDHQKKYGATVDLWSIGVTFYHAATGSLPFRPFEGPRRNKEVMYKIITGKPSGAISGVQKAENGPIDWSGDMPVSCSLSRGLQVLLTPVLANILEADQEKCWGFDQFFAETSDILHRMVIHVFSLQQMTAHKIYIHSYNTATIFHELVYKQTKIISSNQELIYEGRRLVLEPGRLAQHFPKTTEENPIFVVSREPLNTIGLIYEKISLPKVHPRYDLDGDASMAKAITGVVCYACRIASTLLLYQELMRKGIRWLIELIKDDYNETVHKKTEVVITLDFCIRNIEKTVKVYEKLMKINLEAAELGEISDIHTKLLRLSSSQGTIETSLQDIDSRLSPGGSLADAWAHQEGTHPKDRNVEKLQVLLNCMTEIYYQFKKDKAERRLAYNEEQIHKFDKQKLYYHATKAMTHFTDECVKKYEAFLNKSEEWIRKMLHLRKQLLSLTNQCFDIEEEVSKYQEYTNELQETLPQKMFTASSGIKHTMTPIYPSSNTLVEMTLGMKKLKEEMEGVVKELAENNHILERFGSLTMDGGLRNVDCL
Chain of Dual specificity mitogen-activated protein kinase kinase 1 (Q02750 whole entry): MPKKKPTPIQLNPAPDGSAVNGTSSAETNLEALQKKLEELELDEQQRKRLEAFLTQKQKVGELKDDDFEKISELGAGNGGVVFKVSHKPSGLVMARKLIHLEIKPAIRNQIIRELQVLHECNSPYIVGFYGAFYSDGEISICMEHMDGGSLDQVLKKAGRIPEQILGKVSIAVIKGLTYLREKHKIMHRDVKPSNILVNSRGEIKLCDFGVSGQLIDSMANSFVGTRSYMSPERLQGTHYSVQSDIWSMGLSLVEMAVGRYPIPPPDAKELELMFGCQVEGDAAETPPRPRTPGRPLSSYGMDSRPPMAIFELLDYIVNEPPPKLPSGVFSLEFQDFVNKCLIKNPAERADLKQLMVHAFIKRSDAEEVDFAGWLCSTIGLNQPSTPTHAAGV

For the molecule `COc1ccccc1-c1ccnc(Nc2cccc(S(C)(=O)=O)c2)n1`, the Ki in [1] was > 3.16 µM (inactive); in experiment [2] it was > 2.51 µM (inactive); in experiment [3] it was > 3.16 µM (inactive); in [4], 3.98 µM (active); in [5] it was > 2.51 µM (inactive); in experiment [6] it was > 6.31 µM (inactive). For the same molecule, the Ki was > 3.98 µM (inactive) in [7]; > 3.98 µM (inactive) in experiment [8]; > 5.01 µM (inactive) in [9]; 1 µM (active) in [10]; 0.501 µM (active) in experiment [11]; 2.51 µM (active) in [12]. Moreover, the Ki in experiment [13] is 0.794 µM (active); in [14] it was 1 µM (active); in experiment [15], > 2.51 µM (inactive); in [16], > 2.51 µM (inactive); in experiment [17] it was > 3.98 µM (inactive); at LIM domain kinase 1, > 3.16 µM (inactive). The inhibition constant (Ki) in experiment [18] was 0.0316 µM (active); in experiment [19], > 5.01 µM (inactive); in experiment [20], > 3.16 µM (inactive); in experiment [21], 2.51 µM (active); at Activin receptor type-1 it was 0.2 µM (active); in experiment [22] it was > 2.51 µM (inactive). Further, the Ki is > 2 µM (inactive) in experiment [23]; 0.398 µM (active) at Aurora kinase A; > 3.98 µM (inactive) in [24]; > 6.31 µM (inactive) in experiment [25]; 0.794 µM (active) in experiment [26]; > 1.26 µM (inactive) in experiment [27]. The Ki in experiment [28] is 0.501 µM (active); in experiment [29], > 3.16 µM (inactive); in [30] it was > 3.98 µM (inactive); in experiment [31], > 3.98 µM (inactive); in [32] it was 2.51 µM (active); in experiment [33], > 3.16 µM (inactive). For the same molecule, the Ki in experiment [34] was > 3.98 µM (inactive); in experiment [35], 0.501 µM (active); in experiment [36] it was > 5.01 µM (inactive); in experiment [37], 3.16 µM (active); on Activated CDC42 kinase 1 it was > 3.98 µM (inactive); in [38] it was > 3.16 µM (inactive). In addition, the Ki in experiment [39] is > 6.31 µM (inactive); in experiment [40], > 3.16 µM (inactive); in experiment [41], 2.51 µM (active); in [42] it was 0.631 µM (active); in [43], 2.51 µM (active); at Aurora kinase B, 0.794 µM (active). The Ki in experiment [44] is > 3.16 µM (inactive); in experiment [45], > 2.51 µM (inactive); in [46], 0.501 µM (active); in [47], 0.316 µM (active); in [48], > 2.51 µM (inactive); in experiment [49] it was > 6.31 µM (inactive). The Ki in experiment [50] was > 3.98 µM (inactive); in experiment [51] it was 0.398 µM (active); in experiment [52], 3.98 µM (active).
Regarding `Cc1cccc(CNC(=O)c2cnn3c(-c4ccccc4)ccnc23)c1C`, the Ki in experiment [53] is 2.51 µM (active); in [25], 5.01 µM (active); in experiment [54] it was 2.51 µM (active); in [55], 7.94 µM (active); at Aurora kinase B, 1.58 µM (active); in [47], 7.94 µM (active).
For the molecule `COc1ccc(Oc2c(Cl)cnn(CC(=O)N(c3ccccc3)C(C)C)c2=O)cc1`, the IC50 in [56] and in experiment [57] was 3.17 µM (active) throughout.

These data come from ChEMBL document CHEMBL1201862, “PubChem BioAssay data set” (2004).
